# From patent publication US7273723B2, “Antibiotic-based gene regulation system” (priority 2001, dated 2007)
# Assays:
# [1] = target: T1, tTA / tetracycline-responsive promoter PhCMV*-1 (Escherichia coli, UniProt P04483); assay: SEAP assay in CHO-Triplet42 transfected with PhCMV*-1-SEAP (pMF111); type: cell-based; conditions: CHO-Triplet42 + pMF111 (PhCMV*-1); antibiotic 2 μg/ml; 48 h
# T1 construct: expressed in transfected cells; host or cells: CHO-Triplet42 (from CHO-TWIN1108)
# Method: Chinese hamster ovary cells (CHO-K1, ATCC: CCL 61), and HeLa cells (ATCC: CRL-7923) as well as stable cell lines derived thereof were cultured as described before (Fussenegger et al., 1998, Nat. Biotechnol. 16,468-472) in the presence of appropriate antibiotics: G418 400 μg/ml; zeocin 100 μg/ml. Optimized CaPO4 protocols were used for high efficiency transient transfection of all cell lines (Fussenegger et al., 1998. Nat. Biotechnol. 16: 468-472). Transiently transfected cells were routinely analyzed after 48 h for CFP or SEAP expression using fluorescence microscopy and p-nitrophenolphosphate-based light absorbance timecourse, respectively, as described before (Fussenegger et al., 1998, Nat. Biotechnol. 16, 468-472; Berger et al., 1988, Gene 66, 1-10 b). For construction of stable CHO-ET1 and CHO-Triplet42 cell lines, CHO-Ki and CHO-TWIN1108 (Disclosed in PCT application no. 00/65080) were cotransfected with pWW35 and pZeoSV2 (invitrogen). CHO-ET11-SEAP was constructed by cotransfection of pWW38 and pSV2neo (Clontech) into CHO-ET11. The mixed populations were cloned using FACS-mediated single-cell-sorting (FACStar^Plus; Beckton Dickinson). For assessment of dose-response characteristics of PETR3-regulated gene expression, CHO-ET11-SEAP were cultured at cell densities of 50,000/ml for 48 h at various EM concentrations.
# Other antibiotics were eluted from antibiotic test discs (Mast Diagnostica GmbH, Reinfeld, Germany, or bioMérieux, Geneva Switzerland) in cell culture medium at 37° C. for 12 h to reach a final concentration of 30 μg/ml. All macrolide antibiotics were used at a 2 μg/ml concentration unless indicated otherwise.
# [2] = system: PETR1-YFP and PhCMV*-1-CFP expression units; assay: Dual-regulated vector pDuoRex9 (pWW94) in CHO-Triplet42 by fluorescence microscopy; type: cell-based; conditions: transient transfection into CHO-Triplet42
# T1 sequence (P04483 whole entry, added parts left off): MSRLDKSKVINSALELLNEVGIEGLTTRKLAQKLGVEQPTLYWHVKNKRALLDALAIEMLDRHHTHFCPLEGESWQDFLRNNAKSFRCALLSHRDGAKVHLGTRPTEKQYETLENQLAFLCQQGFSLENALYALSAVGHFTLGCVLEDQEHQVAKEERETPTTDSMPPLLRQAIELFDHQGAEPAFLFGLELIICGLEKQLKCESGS
smiles,measurement,setting,value
CC[C@H]1OC(=O)[C@H](C)[C@@H](O[C@H]2C[C@@](C)(OC)[C@@H](O)[C@H](C)O2)[C@H](C)[C@@H](O[C@@H]2O[C@H](C)C[C@H](N(C)C)[C@H]2O)[C@](C)(O)C[C@@H](C)C(=O)[C@H](C)[C@@H](O)[C@]1(C)O [Erythromycin],SEAP activity [U/L],[1],195.1 ± 15.1 U/L
same,YFP and CFP expression from pDuoRex9 (fluorescence microscopy),[2],independent on/off-regulation
